Measured values reported in ChEMBL document CHEMBL1145481, “Molecular epidemiology of telithromycin-resistant pneumococci in Finland” (2007).

How the values were obtained:
[1] = test system: Streptococcus pneumoniae; experiment: Antimicrobial activity against telithromycin-resistant Streptococcus pneumoniae 115 isolate with erm(B) resistance gene from patient ear by disk diffusion test; assay type: functional
[2] = test system: Streptococcus pneumoniae; experiment: Antimicrobial activity against telithromycin-resistant Streptococcus pneumoniae 897 isolate with erm(B) resistance gene from patient bronchoalveolar lavage by disk diffusion test; assay type: functional, Lung
[3] = test system: Streptococcus pneumoniae; experiment: Antimicrobial activity against telithromycin-resistant Streptococcus pneumoniae 237 isolate with erm(B) resistance gene from patient ear by disk diffusion test; assay type: functional
[4] = test system: Streptococcus pneumoniae; experiment: Antimicrobial activity against telithromycin-resistant Streptococcus pneumoniae 415 isolate with erm(B) resistance gene from patient blood by disk diffusion test; assay type: functional
[5] = test system: Streptococcus pneumoniae; experiment: Antimicrobial activity against telithromycin-resistant Streptococcus pneumoniae 426 isolate with erm(B) resistance gene from patient sinuitis by disk diffusion test; assay type: functional
[6] = test system: Streptococcus pneumoniae; experiment: Antimicrobial activity against telithromycin-resistant Streptococcus pneumoniae 427 isolate with erm(B) resistance gene from patient sinuitis by disk diffusion test; assay type: functional
[7] = test system: Streptococcus pneumoniae; experiment: Antimicrobial activity against telithromycin-resistant Streptococcus pneumoniae 443 isolate with erm(B) resistance gene from patient ear by disk diffusion test; assay type: functional
[8] = test system: Streptococcus pneumoniae; experiment: Antimicrobial activity against telithromycin-resistant Streptococcus pneumoniae 460 isolate with erm(B) resistance gene from patient ear by disk diffusion test; assay type: functional
[9] = test system: Streptococcus pneumoniae; experiment: Antimicrobial activity against telithromycin-resistant Streptococcus pneumoniae 547 isolate with erm(B) resistance gene from patient sinuitis by disk diffusion test; assay type: functional
[10] = test system: Streptococcus pneumoniae; experiment: Antimicrobial activity against telithromycin-resistant Streptococcus pneumoniae 552 isolate with erm(B) resistance gene from patient sinuitis by disk diffusion test; assay type: functional
[11] = test system: Streptococcus pneumoniae; experiment: Antimicrobial activity against telithromycin-resistant Streptococcus pneumoniae 683 isolate with erm(B) resistance gene from patient sputum by disk diffusion test; assay type: functional
[12] = test system: Streptococcus pneumoniae; experiment: Antimicrobial activity against telithromycin-resistant Streptococcus pneumoniae 811 isolate with erm(B) resistance gene from patient blood by disk diffusion test; assay type: functional
[13] = test system: Streptococcus pneumoniae; experiment: Antimicrobial activity against telithromycin-resistant Streptococcus pneumoniae 833 isolate with erm(B) resistance gene from patient sinuitis by disk diffusion test; assay type: functional
[14] = test system: Streptococcus pneumoniae; experiment: Antimicrobial activity against telithromycin-resistant Streptococcus pneumoniae 859 isolate with erm(B) resistance gene from patient bronchoalveolar lavage by disk diffusion test; assay type: functional, Lung
[15] = test system: Streptococcus pneumoniae; experiment: Antimicrobial activity against telithromycin-resistant Streptococcus pneumoniae 918 isolate with erm(B) resistance gene from patient eye by disk diffusion test; assay type: functional
[16] = test system: Streptococcus pneumoniae; experiment: Antimicrobial activity against telithromycin-resistant Streptococcus pneumoniae 981 isolate with erm(B) resistance gene from patient blood by disk diffusion test; assay type: functional
[17] = test system: Streptococcus pneumoniae; experiment: Antimicrobial activity against telithromycin-resistant Streptococcus pneumoniae 1016 isolate with erm(B) resistance gene from patient blood by disk diffusion test; assay type: functional
[18] = test system: Streptococcus pneumoniae; experiment: Antimicrobial activity against telithromycin-resistant Streptococcus pneumoniae 1017 isolate with erm(B) resistance gene from patient ear by disk diffusion test; assay type: functional
[19] = test system: Streptococcus pneumoniae; experiment: Antimicrobial activity against telithromycin-resistant Streptococcus pneumoniae 1022 isolate with erm(B) resistance gene from patient ear by disk diffusion test; assay type: functional
[20] = test system: Streptococcus pneumoniae; experiment: Antimicrobial activity against telithromycin-resistant Streptococcus pneumoniae 1041 isolate with erm(B) resistance gene from patient blood by disk diffusion test; assay type: functional
[21] = test system: Streptococcus pneumoniae; experiment: Antimicrobial activity against telithromycin-resistant Streptococcus pneumoniae 1051 isolate with erm(B) resistance gene from patient ear by disk diffusion test; assay type: functional
[22] = test system: Streptococcus pneumoniae; experiment: Antimicrobial activity against telithromycin-resistant Streptococcus pneumoniae 838 isolate with erm(B) and mef(E) resistance gene from patient ear by disk diffusion test; assay type: functional
[23] = test system: Streptococcus pneumoniae; experiment: Antimicrobial activity against telithromycin-resistant Streptococcus pneumoniae 759 isolate with erm(B) resistance gene from patient ear by disk diffusion test; assay type: functional
[24] = test system: Streptococcus pneumoniae; experiment: Antimicrobial activity against telithromycin-resistant Streptococcus pneumoniae 837 isolate with mutation in erm(B), mef(E), L4 Ser20Asn mutant gene from patient sputum by disk diffusion test; assay type: functional
[25] = test system: Streptococcus pneumoniae; experiment: Antimicrobial activity against telithromycin-resistant Streptococcus pneumoniae 326 isolate with erm(B) resistance gene from patient blood by disk diffusion test; assay type: functional
[26] = test system: Streptococcus pneumoniae; experiment: Antimicrobial activity against telithromycin-resistant Streptococcus pneumoniae 376 isolate with erm(B) resistance gene from patient ear by disk diffusion test; assay type: functional

CC[C@H]1OC(=O)[C@H](C)[C@@H](O[C@H]2C[C@@](C)(OC)[C@@H](O)[C@H](C)O2)[C@H](C)[C@@H](O[C@@H]2O[C@H](C)C[C@H](N(C)C)[C@H]2O)[C@](C)(O)C[C@@H](C)C(=O)[C@H](C)[C@@H](O)[C@]1(C)O [ERYTHROMYCIN]
Activity [1]: 129 µg/mL | Activity [2]: 129 µg/mL | Activity [3]: 129 µg/mL | Activity [4]: 129 µg/mL | Activity [5]: 129 µg/mL | Activity [6]: 129 µg/mL | Activity [7]: 129 µg/mL | Activity [8]: 129 µg/mL | Activity [9]: 129 µg/mL | Activity [10]: 129 µg/mL | Activity [11]: 129 µg/mL | Activity [12]: 129 µg/mL | Activity [13]: 129 µg/mL | Activity [14]: 129 µg/mL | Activity [15]: 129 µg/mL | Activity [16]: 129 µg/mL | Activity [17]: 129 µg/mL | Activity [18]: 129 µg/mL | Activity [19]: 129 µg/mL | Activity [20]: 129 µg/mL | Activity [21]: 129 µg/mL | Activity [22]: 129 µg/mL | Activity [23]: 129 µg/mL | Activity [24]: 129 µg/mL | Activity [25]: 129 µg/mL | Activity [26]: 129 µg/mL

CN(C)[C@@H]1C(O)=C(C(N)=O)C(=O)[C@@]2(O)C(O)=C3C(=O)c4c(O)cccc4[C@@](C)(O)[C@H]3C[C@@H]12 [TETRACYCLINE]
Activity [1]: 64 µg/mL | Activity [2]: 64 µg/mL | Activity [3]: 32 µg/mL | Activity [4]: 32 µg/mL | Activity [5]: 32 µg/mL | Activity [6]: 32 µg/mL | Activity [7]: 32 µg/mL | Activity [8]: 32 µg/mL | Activity [9]: 32 µg/mL | Activity [10]: 32 µg/mL | Activity [11]: 32 µg/mL | Activity [12]: 16 µg/mL | Activity [13]: 32 µg/mL | Activity [14]: 32 µg/mL | Activity [15]: 32 µg/mL | Activity [16]: 32 µg/mL | Activity [17]: 32 µg/mL | Activity [18]: 32 µg/mL | Activity [19]: 32 µg/mL | Activity [20]: 32 µg/mL | Activity [21]: 32 µg/mL | Activity [22]: 32 µg/mL | Activity [23]: 32 µg/mL | Activity [24]: 64 µg/mL | Activity [25]: 32 µg/mL | Activity [26]: 0.5 µg/mL
